ChEMBL document CHEMBL4421731, “Small molecules inhibiting oncoprotein Myc” (2016)
Active and inactive are the calls of the source. The calls are words filed in the database; no cut-off is given here.

Key:
[1] = molecular target: Myc proto-oncogene protein (Homo sapiens) (UniProt P01106); assay: Inhibition of Myc in human melanoma cells assessed as increase in Myc-repressed p27kip1 gene expression; format: cell-based
[2] = molecular target: Myc proto-oncogene protein (Homo sapiens) (UniProt P01106); assay: Inhibition of Myc in human melanoma cells assessed as reduction in Myc-transactivated thymidylate synthase gene expression; format: cell-based
[3] = molecular target: T1, N-myc proto-oncogene protein (Homo sapiens) (UniProt P04198); assay: Inhibition of N-Myc (unknown origin) expressed in rat Rat1A cells assessed as inhibition of cell growth incubated for 72 hrs by methylene blue staining based assay
T1 sequence (whole entry): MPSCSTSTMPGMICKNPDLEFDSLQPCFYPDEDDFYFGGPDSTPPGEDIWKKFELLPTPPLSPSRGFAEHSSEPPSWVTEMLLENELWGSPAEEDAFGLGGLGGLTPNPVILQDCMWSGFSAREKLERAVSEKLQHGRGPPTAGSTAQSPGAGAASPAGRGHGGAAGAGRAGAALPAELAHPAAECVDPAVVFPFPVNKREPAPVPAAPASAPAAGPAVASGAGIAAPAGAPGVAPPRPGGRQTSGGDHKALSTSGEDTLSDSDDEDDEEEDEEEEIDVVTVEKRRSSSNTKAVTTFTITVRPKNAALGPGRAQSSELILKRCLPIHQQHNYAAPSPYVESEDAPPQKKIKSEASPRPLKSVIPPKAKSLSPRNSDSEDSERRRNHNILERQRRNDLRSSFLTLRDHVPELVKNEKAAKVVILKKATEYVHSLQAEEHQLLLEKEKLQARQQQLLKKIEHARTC

[4] = molecular target: Myc proto-oncogene protein (Homo sapiens) (UniProt P01106); assay: Inhibition of C-Myc (unknown origin) expressed in rat Rat1A cells assessed as inhibition of cell growth incubated for 72 hrs by methylene blue staining based assay
[5] = Intrinsic clearance in mouse liver microsomes at 1 uM in presence of NADPH by LC-MS/MS analysis; format: ADME, Microsome
[6] = Intrinsic clearance in human liver microsomes at 1 uM in presence of NADPH by LC-MS/MS analysis; format: ADME, Microsome
BE(2)-C = assay: Growth inhibition of human BE(2)-C cells; format: functional, cell-based
IMR-32 = assay: Growth inhibition of human IMR32 cells; format: functional, cell-based
Homo sapiens [7] = species: Homo sapiens; assay: Growth inhibition of N-Myc amplified human NBL-WN cells; format: functional
Homo sapiens [8] = species: Homo sapiens; assay: Growth inhibition of N-Myc overexpressing human NBL-S cells; format: functional
SH-SY5Y = assay: Growth inhibition of human SH-SY5Y cells; format: functional, cell-based
Homo sapiens [9] = species: Homo sapiens; assay: Growth inhibition of human SHEP cells; format: functional
Melanoma cell line [10] = assay: Growth inhibition of human melanoma (#3) cells; format: functional, cell-based
Melanoma cell line [11] = assay: Growth inhibition of human melanoma (#10) cells; format: functional, cell-based
Melanocyte = assay: Growth inhibition of human melanocytes; format: cell-based
SK-MEL19 = assay: Growth inhibition of human SK-MEL-19 cells; format: functional, cell-based
SK-MEL-103 [12] = assay: Growth inhibition of human SK-MEL-103 cells; format: functional, cell-based
[13] = Toxicity in athymic nude mouse xenografted with human SK-MEL-103 cells assessed as induction of distress at 50 mg/kg, ip dosed daily for 14 days dosed via Captisol formulation and measured on day 16; format: organism-based; conditions: in vivo, 336 h
Melanoma cell line [14] = assay: Antitumor activity against human melanoma cells xenografted in mouse assessed as inhibition of tumor growth measured up to 8 days; format: functional, cell-based
[15] = Toxicity in mouse xenografted with human melanoma cells measured up to 8 days; conditions: 192 h
SK-MEL-103 [16] = assay: Antitumor activity against human SK-MEL-103 cells xenografted in athymic nude mouse assessed as inhibition of tumor growth at 50 mg/kg, ip dosed daily; format: functional, organism-based
SK-MEL-103 [17] = assay: Antitumor activity against human SK-MEL-103 cells xenografted in athymic nude mouse assessed as improvement in mouse survival at 50 mg/kg, ip dosed daily for 14 days dosed via Captisol formulation; format: functional, organism-based
[18] = Toxicity in athymic nude mouse xenografted with human SK-MEL-103 cells assessed as induction of weight loss at 50 mg/kg, ip dosed daily for 14 days dosed via Captisol formulation; format: organism-based; conditions: in vivo, 336 h
[19] = Toxicity in athymic nude mouse xenografted with human SK-MEL-103 cells assessed as induction of sickness at 50 mg/kg, ip dosed daily for 14 days dosed via Captisol formulation and measured on day 16; format: organism-based; conditions: in vivo, 336 h
SK-MEL-103 [20] = assay: Antitumor activity against human SK-MEL-103 cells xenografted in athymic nude mouse assessed as improvement in mouse survival at 50 mg/kg, ip dosed daily for 4 days dosed via Captisol formulation; format: functional, organism-based
SK-MEL-103 [21] = assay: Antitumor activity against human SK-MEL-103 cells xenografted in athymic nude mouse assessed as initial tumor level at 50 mg/kg, ip dosed daily for 14 days dosed via Captisol formulation (reference value: 80%); format: functional
[22] = molecular target: Myc proto-oncogene protein (Homo sapiens) (UniProt P01106); assay: Inhibition of C-Myc in human SK-MEL-103 cells assessed as reduction in MYC-dependent transcriptional activation incubated for 48 hrs by microarray relative to control; format: cell-based
[23] = molecular target: Myc proto-oncogene protein (Homo sapiens) (UniProt P01106); assay: Inhibition of C-Myc (unknown origin) expressed in rat HO15.19 cells assessed as accumulation at G0/G1 phase at 3 uM by flow cytometry (reference value: 35.43%); format: cell-based; parameters: scale not given: the % may be the effect or the level left
HO15.19 = assay: Induction of cell cycle arrest in rat HO15.19 cells assessed as accumulation at G0/G1 phase at 3 uM by flow cytometry (reference value: 50.76%); format: cell-based; conditions: ho15.19, 3 µM
[24] = molecular target: Myc proto-oncogene protein (Homo sapiens) (UniProt P01106); assay: Inhibition of C-Myc in human melanoma (#9) cells assessed as reduction in serine levels by [13C]-glucose labeling based assay; format: cell-based
[25] = molecular target: Myc proto-oncogene protein (Homo sapiens) (UniProt P01106); assay: Inhibition of C-Myc in human melanoma (#9) cells assessed as reduction in pyruvate levels by [13C]-glucose labeling based assay; format: cell-based
[26] = molecular target: Myc proto-oncogene protein (Homo sapiens) (UniProt P01106); assay: Inhibition of C-Myc in human melanoma (#9) cells assessed as reduction in lactate levels by [13C]-glucose labeling based assay; format: cell-based
[27] = molecular target: Myc proto-oncogene protein (Homo sapiens) (UniProt P01106); assay: Inhibition of C-Myc in human melanoma (#9) cells assessed as reduction in fumarate levels by [13C]-glucose labeling based assay; format: cell-based
[28] = Toxicity in athymic nude mouse xenografted with human SK-MEL-103 cells assessed as induction of weight loss at 50 mg/kg, ip dosed daily for 1 days dosed via Captisol formulation (reference value: 100 +/- 10%%); format: organism-based; conditions: in vivo, 24 h
[29] = Toxicity in athymic nude mouse xenografted with human SK-MEL-103 cells assessed as induction of weight loss at 50 mg/kg, ip dosed daily for 3 days dosed via Captisol formulation (reference value: 100 +/- 10%%); format: organism-based; conditions: in vivo, 72 h
[30] = Toxicity in athymic nude mouse xenografted with human SK-MEL-103 cells assessed as induction of weight loss at 50 mg/kg, ip dosed daily for 5 days dosed via Captisol formulation (reference value: 100 +/- 10%%); format: organism-based; conditions: in vivo, 120 h
[31] = Toxicity in athymic nude mouse xenografted with human SK-MEL-103 cells assessed as induction of weight loss at 50 mg/kg, ip dosed daily for 10 days dosed via Captisol formulation (reference value: 100 +/- 10%%); format: organism-based; conditions: in vivo, 240 h
[32] = Toxicity in athymic nude mouse xenografted with human SK-MEL-103 cells assessed as induction of weight loss at 50 mg/kg, ip dosed daily for 12 days dosed via Captisol formulation (reference value: 100 +/- 10%%); format: organism-based; conditions: in vivo, 288 h
[33] = Toxicity in athymic nude mouse xenografted with human SK-MEL-103 cells assessed as induction of weight loss at 50 mg/kg, ip dosed daily for 14 days dosed via Captisol formulation (reference value: 100 +/- 10%%); format: organism-based; conditions: in vivo, 336 h

Myc proto-oncogene protein (Homo sapiens), sequence (P01106 whole entry): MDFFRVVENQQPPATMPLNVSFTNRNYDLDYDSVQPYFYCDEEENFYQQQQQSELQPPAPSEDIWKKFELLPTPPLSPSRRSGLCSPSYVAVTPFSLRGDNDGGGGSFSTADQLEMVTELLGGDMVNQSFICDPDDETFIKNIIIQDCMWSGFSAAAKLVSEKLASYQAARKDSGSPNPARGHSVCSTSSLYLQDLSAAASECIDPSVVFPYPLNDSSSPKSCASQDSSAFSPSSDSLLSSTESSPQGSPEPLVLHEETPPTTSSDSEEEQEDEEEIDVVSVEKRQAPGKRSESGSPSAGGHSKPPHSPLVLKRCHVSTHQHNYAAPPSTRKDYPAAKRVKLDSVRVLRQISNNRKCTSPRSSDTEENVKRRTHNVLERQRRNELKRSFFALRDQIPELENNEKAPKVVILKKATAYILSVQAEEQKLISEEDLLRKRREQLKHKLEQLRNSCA

In the case of `CC(=O)NC(c1ccc2c(c1)OCO2)c1ccc2cccnc2c1O` (configuration not stated), the inhibition [1] was “Active” and the inhibition [2] was “Active”.
In the case of `CCN(CC)c1ccc(/C=N/NC(=O)c2cc(C)n[nH]2)c(O)c1`, the inhibition [3] was “Active”, the inhibition [4] was “Active” and the intrinsic clearance [5] was 200 µL/min/mg. For the same molecule, the intrinsic clearance [6] was 47 µL/min/mg.
In the case of `CCOc1cccc(/C=N/NC(=O)CSc2nc3ccccc3[nH]2)c1O`, the inhibition [1] was “Active”, the inhibition [2] was “Active” and the “growth inhibition (GI)” value (BE(2)-C) was “Active”. The “growth inhibition (GI)” value (IMR-32) was “Active”, the “growth inhibition (GI)” value (Homo sapiens [7]) was “Active” and the “growth inhibition (GI)” value (Homo sapiens [8]) was “Active”. For the same molecule, the “growth inhibition (GI)” value (SH-SY5Y) was “Active”, the “growth inhibition (GI)” value (Homo sapiens [9]) was “Active” and the “growth inhibition (GI)” value (Melanoma cell line [10]) was “Active”. The “growth inhibition (GI)” value (Melanoma cell line [11]) was “Active” and the “growth inhibition (GI)” value (Melanocyte) was “Non-Toxic”.
In the case of `O=[N+]([O-])c1ccc(CCNC2CC3CCC2C3)cc1` (configuration not stated), the “growth inhibition (GI)” value (SK-MEL19) was “inactive” and the “growth inhibition (GI)” value (SK-MEL-103 [12]) was “inactive”.
With `C=CCc1cccc(/C=N/NC(=O)c2cc(C(C)(C)C)n[nH]2)c1O` the inhibition [1] was “Active” and the inhibition [2] was “Active”.
For `CCN(CC)C1CC(=O)N(c2cccc(Cl)c2)C1=O` (configuration not stated), the “growth inhibition (GI)” value (SK-MEL19) was “inactive” and the “growth inhibition (GI)” value (SK-MEL-103 [12]) was “inactive”.
For `CCN(CC)Cc1c(C(=O)N/N=C/c2ccc(N(CC)CC)cc2O)nnn1-c1nonc1N`, the inhibition [3] was “Active”, the inhibition [4] was “Active” and the intrinsic clearance [5] was 300 µL/min/mg. The intrinsic clearance [6] was 120 µL/min/mg.
For `CCN(CC)c1ccc(/C=N/NC(=O)Cn2nnc(-c3ccccc3)n2)c(O)c1`, the Activity [13] was “Non-Toxic”, the inhibition [1] was “Active” and the inhibition [2] was “Active”. The TGI (Melanoma cell line [14]) was “Active”, the Activity [15] was “Non-Toxic” and the TGI (SK-MEL-103 [16]) was “Active”. The Activity (SK-MEL-103 [17]) was “Active”, the Activity [18] was “Non-Toxic” and the Activity [19] was “Non-Toxic”. For the same molecule, the TGI (SK-MEL-103 [20]) was “inactive”, the Activity (SK-MEL-103 [21]) was less than 50% and the inhibition [22] was “Active”. For the same molecule, the intrinsic clearance [5] was 270 µL/min/mg, the intrinsic clearance [6] was 110 µL/min/mg and the Activity [23] was 49.7%. The Activity (HO15.19) was 54.9%, the inhibition [24] was “Active” and the inhibition [25] was “Active”. For the same molecule, the inhibition [26] was “Active”, the inhibition [27] was “Active” and the Activity [28] was 100%. For the same molecule, the Activity [29] was 103.3%, the Activity [30] was 103.8% and the Activity [31] was 111.4%. It also gave an Activity [32] of 113.3% and an Activity [33] of 114.5%.
With `CC(C)=NNc1ncnc2[nH]cnc12` the “growth inhibition (GI)” value (SK-MEL19) was “inactive” and the “growth inhibition (GI)” value (SK-MEL-103 [12]) was “inactive”.
With `CN(C)CCCNc1cc(O)c2c(c1O)C(=O)c1ccccc1C2=O` the “growth inhibition (GI)” value (SK-MEL19) was “inactive” and the “growth inhibition (GI)” value (SK-MEL-103 [12]) was “inactive”.
